Measurements from patent US12065436B2, “Cardiac sarcomere inhibitors” (Cytokinetics, Inc., priority 2018, dated 2024).

Target: bovine cardiac myofibrils (full-length cardiac myosin ATPase in the native sarcomere) (Bos taurus (Bovine), UniProt Q9BE39)
Assay: Skinned bovine cardiac myofibril ATPase assay (PK/LDH-coupled)
Format: biochemical
Settings: Ca2+ activating to 75% of maximal rate; for CDMF75 IC15: concentration giving 15% inhibition; for IC50: read-out: CDMF75 IC50
In short: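 Triton-skinned bovine left-ventricle myofibrils (1 mg/mL) in PM 12 buffer (12 mM PIPES, 2 mM MgCl2, pH 6.8) with 50 μM ATP, 0.6 mM EGTA and CaCl2 set for 50% or 75% activation. Steady-state ATPase inhibition followed by PK/LDH-coupled NADH oxidation at 340 nm.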

Sequence of bovine cardiac myofibrils (full-length cardiac myosin ATPase in the native sarcomere) (Q9BE39 whole entry): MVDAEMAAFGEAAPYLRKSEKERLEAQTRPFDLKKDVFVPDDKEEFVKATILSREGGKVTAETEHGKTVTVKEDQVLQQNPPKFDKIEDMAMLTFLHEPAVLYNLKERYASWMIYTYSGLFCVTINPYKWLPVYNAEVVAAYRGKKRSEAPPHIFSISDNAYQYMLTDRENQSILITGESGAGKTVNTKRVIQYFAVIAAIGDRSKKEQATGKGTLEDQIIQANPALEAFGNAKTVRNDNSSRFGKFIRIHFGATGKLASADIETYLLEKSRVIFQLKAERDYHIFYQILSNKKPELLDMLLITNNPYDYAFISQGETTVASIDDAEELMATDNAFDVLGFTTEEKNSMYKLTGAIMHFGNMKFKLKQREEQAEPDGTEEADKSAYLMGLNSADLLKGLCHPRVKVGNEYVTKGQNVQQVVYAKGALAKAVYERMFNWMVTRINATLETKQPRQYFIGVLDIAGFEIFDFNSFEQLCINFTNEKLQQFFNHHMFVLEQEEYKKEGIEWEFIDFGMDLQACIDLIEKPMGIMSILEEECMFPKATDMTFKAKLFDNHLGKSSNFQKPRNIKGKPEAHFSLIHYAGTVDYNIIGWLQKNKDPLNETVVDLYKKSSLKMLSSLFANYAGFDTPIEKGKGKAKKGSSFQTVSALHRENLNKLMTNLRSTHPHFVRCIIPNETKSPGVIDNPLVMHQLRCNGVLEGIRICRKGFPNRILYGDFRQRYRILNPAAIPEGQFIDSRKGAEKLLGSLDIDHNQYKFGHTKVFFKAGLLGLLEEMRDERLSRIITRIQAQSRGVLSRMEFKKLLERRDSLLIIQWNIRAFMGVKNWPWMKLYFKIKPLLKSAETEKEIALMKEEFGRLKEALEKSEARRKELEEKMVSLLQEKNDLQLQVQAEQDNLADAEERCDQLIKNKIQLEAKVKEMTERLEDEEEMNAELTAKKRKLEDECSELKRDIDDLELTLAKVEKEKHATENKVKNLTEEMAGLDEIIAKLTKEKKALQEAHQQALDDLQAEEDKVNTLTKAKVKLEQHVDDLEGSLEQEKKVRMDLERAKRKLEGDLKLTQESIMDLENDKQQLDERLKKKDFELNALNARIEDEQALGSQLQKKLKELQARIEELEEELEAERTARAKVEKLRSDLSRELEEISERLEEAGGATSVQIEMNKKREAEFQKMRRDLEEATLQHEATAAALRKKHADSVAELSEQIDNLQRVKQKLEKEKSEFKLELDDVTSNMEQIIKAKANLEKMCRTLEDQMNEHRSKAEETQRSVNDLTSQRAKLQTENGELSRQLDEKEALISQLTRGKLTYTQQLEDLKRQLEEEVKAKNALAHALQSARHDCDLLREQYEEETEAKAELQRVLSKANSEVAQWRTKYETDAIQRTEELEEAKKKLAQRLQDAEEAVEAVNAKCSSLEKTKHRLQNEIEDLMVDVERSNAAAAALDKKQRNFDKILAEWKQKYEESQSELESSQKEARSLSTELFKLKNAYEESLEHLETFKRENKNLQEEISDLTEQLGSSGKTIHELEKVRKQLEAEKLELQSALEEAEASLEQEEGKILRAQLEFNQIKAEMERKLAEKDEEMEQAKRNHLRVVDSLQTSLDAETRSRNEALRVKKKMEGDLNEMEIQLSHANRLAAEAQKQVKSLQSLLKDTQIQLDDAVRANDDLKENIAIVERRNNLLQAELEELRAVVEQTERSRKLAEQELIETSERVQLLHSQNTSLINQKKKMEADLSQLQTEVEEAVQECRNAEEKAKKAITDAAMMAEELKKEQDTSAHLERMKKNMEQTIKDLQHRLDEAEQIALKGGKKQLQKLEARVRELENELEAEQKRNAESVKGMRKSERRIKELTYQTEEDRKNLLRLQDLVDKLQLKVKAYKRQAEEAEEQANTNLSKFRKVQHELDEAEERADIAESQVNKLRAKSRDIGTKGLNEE
Sequence of bovine cardiac myofibrils (full-length cardiac myosin ATPase in the native sarcomere) (P85100 whole entry partner): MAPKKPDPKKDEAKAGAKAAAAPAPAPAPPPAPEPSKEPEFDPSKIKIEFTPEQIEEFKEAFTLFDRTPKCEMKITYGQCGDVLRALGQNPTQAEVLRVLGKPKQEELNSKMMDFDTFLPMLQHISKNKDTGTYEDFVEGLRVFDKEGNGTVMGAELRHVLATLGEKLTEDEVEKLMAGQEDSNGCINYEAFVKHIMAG
Sequence of bovine cardiac myofibrils (full-length cardiac myosin ATPase in the native sarcomere) (Q3SZE5 whole entry partner): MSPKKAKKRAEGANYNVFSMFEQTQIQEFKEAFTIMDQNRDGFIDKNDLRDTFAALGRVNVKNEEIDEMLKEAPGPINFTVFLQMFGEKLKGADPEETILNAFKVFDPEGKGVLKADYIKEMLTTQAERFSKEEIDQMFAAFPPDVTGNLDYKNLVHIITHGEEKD

| CDMF75 IC15 | IC50 | Compound |
| --- | --- | --- |
| 600 nM | 2000 nM | Cc1cc(C(=O)NC2COc3cc(-c4noc(C(F)F)n4)ccc32)n(C)n1 (stereo not drawn) [Compound 190, N-(6-(5-(difluoromethyl)-1,2,4-oxadiazol-3-yl)-2,3-dihydrobenzofuran-3-yl)-1,3-dimethyl-1H-pyrazole-5-carboxamide] |
| 1300 nM | 4900 nM | Cc1nn(C)cc1C(=O)N[C@@H]1CCc2cc(-c3nc(C(F)F)no3)ccc21 [Compound 214, (R)-N-(5-(3-(difluoromethyl)-1,2,4-oxadiazol-5-yl)-2,3-dihydro-1H-inden-1-yl)-1,3-dimethyl-1H-pyrazole-4-carboxamide] |
| 1100 nM | 3500 nM | [2H]C([2H])([2H])c1nc(-c2ccc3c(c2)OC[C@H]3NC(=O)c2cnn(C)c2C)no1 [Compound 269, (S)-1,5-dimethyl-N-(6-(5-(methyl-d3)-1,2,4-oxadiazol-3-yl)-2,3-dihydrobenzofuran-3-yl)-1H-pyrazole-4-carboxamide] |
| 4500 nM | 20000 nM | CCc1nc(-c2ccc3c(c2)CC[C@H]3NC(=O)c2cnn(CC3COC3)c2)no1 [Compound 506, (R)-N-(5-(5-ethyl-1,2,4-oxadiazol-3-yl)-2,3-dihydro-1H-inden-1-yl)-1-(oxetan-3-ylmethyl)-1H-pyrazole-4-carboxamide] |
| 400 nM | 1500 nM | C=Cc1nc(-c2ccc3c(c2)CC[C@H]3NC(=O)c2cnn(C)c2)no1 [Compound 547, N-[(1R)-5-(5-vinyl(1,2,4-oxadiazol-3-yl))indanyl](1-methylpyrazol-4-yl)carboxamide] |
| 39200 nM | > 39200 nM | Cc1cc(C(=O)N[C@H]2CCc3cc(-c4nnn(C)n4)ccc32)ccn1 [Compound 149, (S)-2-methyl-N-(5-(2-methyl-2H-tetrazol-5-yl)-2,3-dihydro-1H-inden-1-yl)isonicotinamide] |
| 800 nM | 2500 nM | Cc1cc(-c2ccc3c(c2)CC[C@H]3NC(=O)c2cn[nH]c2C)no1 [Compound 432, (R)-5-methyl-N-(5-(5-methylisoxazol-3-yl)-2,3-dihydro-1H-inden-1-yl)-1H-pyrazole-4-carboxamide] |
| 800 nM | 3800 nM | CCc1nc(-c2ccc3c(c2)OC[C@H]3NC(=O)NCCO)no1 [Compound 745, (S)-1-(6-(5-ethyl-1,2,4-oxadiazol-3-yl)-2,3-dihydrobenzofuran-3-yl)-3-(2-hydroxyethyl)urea] |
| 300 nM | 1200 nM | Cc1cc(-c2ccc3c(c2)CC[C@H]3NC(=O)c2ocnc2C)no1 [Compound 418, (R)-4-methyl-N-(5-(5-methylisoxazol-3-yl)-2,3-dihydro-1H-inden-1-yl)oxazole-5-carboxamide] |
| 1000 nM | 3800 nM | Cc1nc(-c2ccc3c(c2)OC[C@H]3NC(=O)c2cnc(C)o2)no1 [Compound 167, (S)-2-methyl-N-(6-(5-methyl-1,2,4-oxadiazol-3-yl)-2,3-dihydrobenzofuran-3-yl)oxazole-5-carboxamide] |
| 800 nM | 3400 nM | Cc1nn(C)cc1C(=O)NC1CCc2cc(-c3noc(C(F)F)n3)ccc21 (stereo not drawn) [Compound 28, N-(5-(5-(difluoromethyl)-1,2,4-oxadiazol-3-yl)-2,3-dihydro-1H-inden-1-yl)-1,3-dimethyl-1H-pyrazole-4-carboxamide] |
| 800 nM | 2600 nM | Cc1cc(-c2ccc3c(c2)OC[C@H]3NC(=O)c2cnn(C)c2)no1 [Compound 426, (S)-1-methyl-N-(6-(5-methylisoxazol-3-yl)-2,3-dihydrobenzofuran-3-yl)-1H-pyrazole-4-carboxamide] |
| 1100 nM | 3700 nM | Cc1nc(-c2ccc3c(c2)CC[C@H]3NC(=O)c2cn(C)nc2C)no1 [Compound 111, (R)-1,3-dimethyl-N-(5-(5-methyl-1,2,4-oxadiazol-3-yl)-2,3-dihydro-1H-inden-1-yl)-1H-pyrazole-4-carboxamide] |

The remaining lines, values behind:

| Compound | CDMF75 IC15 | IC50 |
| --- | --- | --- |
| [2H]C([2H])([2H])c1nc(-c2ccc3c(c2)CC[C@H]3NC(=O)c2oncc2C)no1 [Compound 248, (R)-4-methyl-N-(5-(5-(methyl-d3)-1,2,4-oxadiazol-3-yl)-2,3-dihydro-1H-inden-1-yl)isoxazole-5-carboxamide] | 400 nM | 1500 nM |
| C=Cc1cc(C(=O)N[C@@H]2CCc3cc(-c4noc(CC)n4)ccc32)ccn1 [Compound 655, (R)-N-(5-(5-ethyl-1,2,4-oxadiazol-3-yl)-2,3-dihydro-1H-inden-1-yl)-2-vinylisonicotinamide] | 600 nM | 1900 nM |
| COCc1nc(-c2ccc3c(c2)CC[C@H]3NC(=O)C(F)F)no1 [Compound 437, (R)-2,2-difluoro-N-(5-(5-(methoxymethyl)-1,2,4-oxadiazol-3-yl)-2,3-dihydro-1H-inden-1-yl)acetamide] | 8800 nM | 34400 nM |
| CCc1nc(-c2ccc3c(c2)CC[C@H]3NC(=O)c2cc(O)no2)no1 [Compound 634, (R)-N-(5-(5-ethyl-1,2,4-oxadiazol-3-yl)-2,3-dihydro-1H-inden-1-yl)-3-hydroxyisoxazole-5-carboxamide] | 500 nM | 2100 nM |
| O=C(Nc1ccccc1)NC1CCc2cc(-c3noc(C(F)F)n3)ccc21 (stereo not drawn) [Compound 13, 1-(5-(5-(difluoromethyl)-1,2,4-oxadiazol-3-yl)-2,3-dihydro-1H-inden-1-yl)-3-phenylurea] | 500 nM | 22100 nM |
| COC(=O)N[C@@H]1CCc2cc(-c3noc(C(F)F)n3)ccc21 [Compound 282, methyl (R)-(5-(5-(difluoromethyl)-1,2,4-oxadiazol-3-yl)-2,3-dihydro-1H-inden-1-yl)carbamate] | 500 nM | 1900 nM |
| Cn1cnnc1C(=O)N[C@@H]1CCc2cc(-c3noc(C(F)F)n3)ccc21 [Compound 165, (R)-N-(5-(5-(difluoromethyl)-1,2,4-oxadiazol-3-yl)-2,3-dihydro-1H-inden-1-yl)-4-methyl-4H-1,2,4-triazole-3-carboxamide] | 4600 nM | 23500 nM |
| CCc1nc(-c2ccc3c(c2)CC[C@H]3NC(=O)c2cccc(CCO)c2)no1 [Compound 659, (R)-N-(5-(5-ethyl-1,2,4-oxadiazol-3-yl)-2,3-dihydro-1H-inden-1-yl)-3-(2-hydroxyethyl)benzamide] | 500 nM | 1700 nM |
| CCc1nc(-c2ccc3c(c2)CC[C@H]3NC(=O)c2cccc(C=O)c2)no1 [Compound 658, (R)-N-(5-(5-ethyl-1,2,4-oxadiazol-3-yl)-2,3-dihydro-1H-inden-1-yl)-3-formylbenzamide] | 300 nM | 900 nM |
| CCc1nc(-c2ccc3c(c2)CC[C@H]3NC(=O)c2cccc(CO)c2F)no1 [Compound 654, (R)-N-(5-(5-ethyl-1,2,4-oxadiazol-3-yl)-2,3-dihydro-1H-inden-1-yl)-2-fluoro-3-(hydroxymethyl)benzamide] | 600 nM | 2200 nM |
| Cc1c(C(=O)N[C@@H]2CCc3cc(-c4noc(C5CCC5)n4)ccc32)cnn1C [Compound 151, (R)-N-(5-(5-cyclobutyl-1,2,4-oxadiazol-3-yl)-2,3-dihydro-1H-inden-1-yl)-1,5-dimethyl-1H-pyrazole-4-carboxamide] | 500 nM | 2000 nM |
